Assay results reported in US10328056B2, “Priming of pancreatic tumor cells and cancer stem cells to TRAIL-induced apoptosis” (Alliance of Cardiovascular Researchers, priority 2014, dated 2019).

Experiments:
MiaPaCa2 tumors = assay: Orthotopic MiaPaCa2 tumor model; type: in vivo, mice; conditions: for #tumors at 6 wks: JNKi 1 mg/kg oral 5x/week, TRAIL 1 mg/kg i.p. 2x/week, gemcitabine 80 mg/kg 2x/week; for % tumor presence at 6 wks / Kidney mets / Liver mets / Peritoneal mets / Spleen mets: same regimens; for Kidney mets / Liver mets / Peritoneal mets / Spleen mets: at 6 wks
Method: Age-matched male swiss nu/nu mice (6-8 weeks old) were injected orthotopically with pancreatic tumor cells. All procedures were performed in accordance with the guidelines of the Institutional Animal Care and Use Committee at The University of Texas MD Anderson Cancer Center (ACDF Protocol #12-12-12631). Animals were anesthetized with isoflurane anesthesia (1%-3% via inhalation), and an incision was made in the left abdominal flank. The spleen was located and extracted, and 1×10^6 pancreatic cells in 50 μL of PBS were injected into the underlying tail of the pancreas. The abdominal wall was closed with sterile absorbable sutures, and wound clips were applied to the skin. Animals were monitored daily and after two weeks of untreated tumor growth randomly assigned to different treatment groups: control (no treatment), JNKi (1 mg/kg) was administered by oral gavage five times per week; gemcitabine (80 mg/kg) or TRAIL (1 mg/kg) was injected intraperitoneally with a 27-G needle two times per week or JNKi and TRAIL together at the dosages indicated above. Weight, tumor growth, and health status were clinically followed for 4 weeks. At day 42, animals were euthanized, and blood and tissues were collected for postmortem analysis.

[1] = tested on: adipose tissue-derived stem cells (ASCs); assay: Differentiation assay of ASCs; type: cell-based, human
Method: Adipose tissue-derived stem cells were seeded in the following concentrations: adipogenic differentiation, 1×10^4 cells/cm^2; chondrogenic differentiation, 1.6×10^7 cells/cm2; and osteogenic differentiation, 5×10^3 cells/cm^2. After a 2-hour incubation with 20% FBS-containing medium, cells were washed, and the respective differentiation media were added (Invitrogen StemPro differentiation kits). Differentiation media were changed twice a week. After 14 to 21 days, cells were fixed with 4% formaldehyde for 30 minutes and stained with Oil Red O for lipid vesicles (adipogenic differentiation), Alcian Blue for proteoglycans (chondrogenic differentiation), and Alizarin Red S for calcium deposits (osteogenic differentiation) as reported previously. Bai X, Alt E. “Myocardial regeneration potential of adipose tissue-derived stem cells” Biochemical and Biophysical Research Communications. 401 (2010) 321-6.

[2] = tested on: adipose tissue-derived stem cells (ASCs); assay: MTT proliferation assay of adipose tissue-derived stem cells; type: cell-based, human; conditions: 10.0 μM or 20.0 μM
Method: (§1) Cells were seeded in a 96-well plate at a density of 4000 to 5000 cells per well (70%-80% confluence) in triplicate. Non-adherent cells were washed with PBS, and different substrate dilutions were added. After 24 hours, 3-(4,5-dimethylthiazol-2-yl)-2,5-diphenyltetrazolium bromide (MTT) assay (Roche, Mannheim, Germany) was performed according to the manufacturer's instructions. Results were measured at 570 nm and background at 650 nm on a microplate reader (Molecular Devices).
For measurement of cell proliferation, cells were seeded into 24-well plates. After 24 hours, cells were washed with PBS, and medium with different dilutions of JNKi was added. Viable cells were then counted daily with a standard trypan blue stain protocol.

MTT cell viability assay = type: cell-based; conditions: human, low-dose 0.5 μM or 1.0 μM
Method: as §1

[3] = tested on: CSC-enriched pancreatic cancer spheres; assay: Sphere forming assay; type: cell-based; conditions: high-dose treatment group (control 40%)
Method: Sphere-forming medium consisted of MEMα supplemented with L-glutamine, putrescine, insulin (all from Sigma-Aldrich), […] (20 ng/mL), basic fibroblast growth factor (10 ng/mL), and B-27 supplement (Gibco). For first generation, attached cells were trypsinized, washed twice with PBS, and seeded in sphere-forming medium as single cell suspensions with clonal density (5,000-10,000 cells/mL) on ultra-low-attachment plates (Corning). After 7 to 10 days, spheres were harvested by gravitation in a tube, trypsinized, washed twice with PBS, and reseeded as described above for the next higher generation. To quantify sphere-forming ability, cells were prepared as described in the preceding paragraph and seeded in 96-well ultra-low-attachment plates at 500 to 1000 cells per well. Medium was supplemented with 1% methylcellulose to prevent cell-cell attachments. Medium was added or renewed every 3 days, and spheres were quantified at day 10 to 12.

[4] = tested on: TRAIL-resistant L3.6pl cells (L3.6plTR); assay: Cell viability / cell death in TRAIL-resistant cells; type: cell-based
Method: as §1

L3.6pl cells = assay: MTT cell viability assay; type: cell-based; conditions: compared to TRAIL alone
Method: as §1

IL-8, CXCR1, DcR1, c-Jun = assay: qRT-PCR of IL-8 axis genes; type: cell-based; conditions: IL-8 treatment
Method: (§2) For total RNA extraction, cells were homogenized with TRIzol (Invitrogen). Phase separation was performed by the addition of chloroform and subsequent centrifugation steps. Aqueous phase of samples was collected, and RNA was precipitated by isopropyl alcohol. After washing, RNA was redissolved in DEPC-treated water, and RNA quality and quantity were measured with a Nanodrop ND-1000 Spectrophotometer (Thermo Scientific). For cDNA synthesis, the iScript Reverse Transcription Supermix (Bio-Rad) was used according to the manufacturer's protocol, and the reaction mix was incubated in a thermal cycler (Bio-Rad MyIQ Single-Color RT-PCR Detection System iCycler) with the following protocol: priming (5 minutes at 25° C.), reverse transcription (30 minutes at 42° C.), and reverse transcription inactivation (5 minutes at 85° C.). qRT-PCR was performed using iQ SYBR Green Supermix (Bio-Rad) according to the following protocol: initial denaturation and enzyme activation (1 cycle at 95° C. for 3 minutes), denaturing (40 cycles at 95° C. for 15 seconds) with annealing and extension (40 cycles at 55° C. for 30 seconds), and melting curve (1 cycle at 55° C.-95° C. in […] for 30 seconds). The Ct (cycle threshold) value was measured in absolute quantification (of cycles of amplification) and compared to β-actin, which served as a housekeeping gene.

p-JNK = assay: PathScan p-SAPK/JNK sandwich ELISA; type: cell-based; conditions: L3.6plTR cells vs untreated control
Method: Protein lysates were obtained from adherent cells or spheres after 1-hour of incubation with JNKi and/or TRAIL. Protein quantification was performed, and PathScan Sandwich ELISA Antibody Pair (Cell Signaling Technologies) was performed according to the manufacturer's instructions.

[5] = tested on: CSC-enriched pancreatic cancer spheres; assay: MTT viability assay, spheres versus parental cells; type: cell-based; conditions: 25 ng/mL and 50 ng/mL
Method: as §1

L3.6pl parental cells = assay: Acridine orange/ethidium bromide staining; type: cell-based; conditions: 50 ng/mL, 24 hours
Source text: (§3) According to a protocol adapted from Todaro et al. (supra), attached cells or spheres were washed with PBS, stained with acridine orange/ethidium bromide, and visualized immediately with fluorescent microscopy.

L3.6pl spheres = assay: Acridine orange/ethidium bromide staining; type: cell-based; conditions: 50 ng/mL, 24 hours
Source text: as §3

DR4 and DR5 = assay: qRT-PCR of TRAIL death receptors; type: cell-based; conditions: vs control samples
Method: as §2

IL-8 secretion = assay: Human CXCL8/IL-8 ELISA of culture supernatant; type: cell-based
Method: Cell culture supernatant was obtained after 24-hour treatments in triplicate. A human CXCL8/IL-8 Quantikine ELISA kit (R&D Systems) was used to measure human IL-8 according to the manufacturer's protocol. An IL-8 standard curve was performed to determine concentrations (in pg of cytokine per μL).

DcR1 = assay: qRT-PCR of TRAIL decoy receptor; type: cell-based; conditions: vs control samples
Method: as §2

[6] = tested on: parental pancreatic cancer cells; assay: MTT cell viability assay, single agents; type: cell-based; conditions: JNKi 0.5 μM alone; rhTRAIL 10 ng/mL alone
Method: as §1

With `Nc1ccn([C@@H]2O[C@H](CO)[C@@H](O)C2(F)F)c(=O)n1` [GEM, Gemcitabine] the “#tumors at 6 wks” value (MiaPaCa2 tumors) was 5/5, the “% tumor presence at 6 wks” value (MiaPaCa2 tumors) was 100% and the Kidney mets (MiaPaCa2 tumors) was 0. It also gave a Liver mets (MiaPaCa2 tumors) of 1, a Peritoneal mets (MiaPaCa2 tumors) of 1 and a Spleen mets (MiaPaCa2 tumors) of 3.

For `Oc1c2ccccc2c2c3c(cccc13)N=N2` [JNKi, SP600125], the “differentiation into osteoblasts, chondrocytes, adipocytes” value [1] was “functionally unimpaired”, the “cell proliferative capacity, lower compared to untreated ASCs” value [2] was 20% and the “#tumors at 6 wks” value (MiaPaCa2 tumors) was 4/4. For the same compound, the “% tumor presence at 6 wks” value (MiaPaCa2 tumors) was 100%, the Kidney mets (MiaPaCa2 tumors) was 0 and the Liver mets (MiaPaCa2 tumors) was 1. For the same compound, the Peritoneal mets (MiaPaCa2 tumors) was 0, the Spleen mets (MiaPaCa2 tumors) was 1 and the viability at 24 h (MTT cell viability assay; L3.6pl cells, 24 hours) was 80%. The viability at 24 h (MTT cell viability assay; MiaPaCa2 cells) was 80% and the “spheres bigger than 150 μm in diameter” value [3] was 0%.

With “IL-8: interleukin-8 added to cells in combination with TRAIL” the “cell viability / apoptosis in combination with TRAIL” value ([4]; compared to TRAIL alone) was “neutralized the apoptosis-inducing power of TRAIL”, the “cell viability / apoptosis in combination with TRAIL” value (L3.6pl cells) was “neutralized the apoptosis-inducing power of TRAIL” and the DcR1 expression (IL-8, CXCR1, DcR1, c-Jun) was “upregulation of the decoy receptor DcR1”. For the same compound, the “IL-8 and CXCR1 expression” value (IL-8, CXCR1, DcR1, c-Jun) was “autostimulated IL-8 and CXCR1 expression”.

With “TRAIL: recombinant human TNF-related apoptosis-inducing ligand from R&D Systems” the cell death ([4]; TRAIL doses up to 100 ng/mL) was “detectable cell death only in small numbers of cells”, the p-JNK levels (p-JNK) was “increased p-JNK levels” and the “differentiation into osteoblasts, chondrocytes, adipocytes” value [1] was “functionally unimpaired”. For the same compound, the “resistance of spheres to TRAIL-induced cell death vs parental cells” value [5] was “significantly more resistant”, the “#tumors at 6 wks” value (MiaPaCa2 tumors) was 10/10 and the “% tumor presence at 6 wks” value (MiaPaCa2 tumors) was 100%. The Kidney mets (MiaPaCa2 tumors) was 0, the Liver mets (MiaPaCa2 tumors) was 2 and the Peritoneal mets (MiaPaCa2 tumors) was 1. The Spleen mets (MiaPaCa2 tumors) was 0, the apoptosis (L3.6pl parental cells) was “robust apoptosis” and the viability of spheres (L3.6pl spheres) was “almost entirely viable”. The “expression of DR4 and DR5” value (DR4 and DR5) was “reduced the presence of the apoptosis receptors DR4 and DR5”, the “TRAIL level at peak IL-8 secretion” value (IL-8 secretion; Panc1 cells, 24 hours) was 50 ng/mL and the IL-8 secretion (IL-8 secretion; TRAIL with or without JNKi) was “upregulates IL-8 secretion”. The IL-8 production (IL-8 secretion; increasing doses of TRAIL, 24 hours) was “increased dose-dependently”, the “expression of DcR1” value (DcR1) was “increased the expression of the decoy receptor DcR1” and the cell viability [6] was “only modest effects”.
